# Assay results published in PubChem BioAssay (NCI).
#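 96-well plates; 48 h exposure; 5 concentrations. Endpoints by linear interpolation between flanking doses. Not reached: highest tested concentration assigned. GI50 = concentration required for 50% inhibition of growth. TGI denotes the concentration required for complete inhibition of growth.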
# How the values were obtained:
# Assay in all cases: inhibition of tumour cell growth, NCI panel, 48 h
# 786-0 renal = test system: 786-0 renal
# A498 renal = test system: A498 renal
# A549 NSCLC = test system: A549 NSCLC
# ACHN renal = test system: ACHN renal
# BT-549 breast = test system: BT-549 breast
# CAKI-1 renal = test system: CAKI-1 renal
# CCRF-CEM leukemia = test system: CCRF-CEM leukemia
# COLO 205 colon = test system: COLO 205 colon
# DU-145 prostate = test system: DU-145 prostate
# HCC-2998 colon = test system: HCC-2998 colon
# HCT-116 colon = test system: HCT-116 colon
# HCT-15 colon = test system: HCT-15 colon
# HL-60(TB) leukemia = test system: HL-60(TB) leukemia
# HOP-62 NSCLC = test system: HOP-62 NSCLC
# HOP-92 NSCLC = test system: HOP-92 NSCLC
# HS 578T breast = test system: HS 578T breast
# HT29 colon = test system: HT29 colon
# IGROV1 ovarian = test system: IGROV1 ovarian
# K-562 leukemia = test system: K-562 leukemia
# KM12 colon = test system: KM12 colon
# LOX IMVI melanoma = test system: LOX IMVI melanoma
# M14 melanoma = test system: M14 melanoma
# MALME-3M melanoma = test system: MALME-3M melanoma
# MCF7 breast = test system: MCF7 breast
# MDA-MB-231 breast = test system: MDA-MB-231 breast
# MDA-MB-435 = test system: MDA-MB-435
# MOLT-4 leukemia = test system: MOLT-4 leukemia
# NCI-H226 lung = test system: NCI-H226 lung
# NCI-H23 lung = test system: NCI-H23 lung
# NCI-H460 lung = test system: NCI-H460 lung
# NCI-H522 lung = test system: NCI-H522 lung
# OVCAR-3 ovarian = test system: OVCAR-3 ovarian
# OVCAR-4 ovarian = test system: OVCAR-4 ovarian
# OVCAR-5 ovarian = test system: OVCAR-5 ovarian
# OVCAR-8 ovarian = test system: OVCAR-8 ovarian
# PC-3 prostate = test system: PC-3 prostate
# RPMI-8226 leukemia = test system: RPMI-8226 leukemia
# RXF 393 renal = test system: RXF 393 renal
# SF-268 CNS = test system: SF-268 CNS
# SF-295 CNS = test system: SF-295 CNS
# SF-539 CNS = test system: SF-539 CNS
# SK-MEL-2 melanoma = test system: SK-MEL-2 melanoma
# SK-MEL-28 melanoma = test system: SK-MEL-28 melanoma
# SK-MEL-5 melanoma = test system: SK-MEL-5 melanoma
# SK-OV-3 ovarian = test system: SK-OV-3 ovarian
# SN12C renal = test system: SN12C renal
# SNB-19 CNS = test system: SNB-19 CNS
# SR leukemia = test system: SR leukemia
# SW-620 colon = test system: SW-620 colon
# T-47D breast = test system: T-47D breast
# TK-10 renal = test system: TK-10 renal
# U251 CNS = test system: U251 CNS
# UACC-257 melanoma = test system: UACC-257 melanoma
# UACC-62 melanoma = test system: UACC-62 melanoma
# UO-31 renal = test system: UO-31 renal
smiles,measurement,setting,value
NCCCCCNc1noc(Cc2c[nH]c3cc(Br)ccc23)n1,GI50,786-0 renal,5.24 µM
same,TGI,786-0 renal,27.1 µM
same,GI50,A498 renal,1.76 µM
same,TGI,A498 renal,10.7 µM
same,GI50,A549 NSCLC,3.88 µM
same,TGI,A549 NSCLC,38.8 µM
same,GI50,ACHN renal,9.02 µM
same,TGI,ACHN renal,21.7 µM
same,GI50,BT-549 breast,2.43 µM
same,TGI,BT-549 breast,24.4 µM
same,GI50,CAKI-1 renal,6.84 µM
same,TGI,CAKI-1 renal,> 100 µM
same,GI50,CCRF-CEM leukemia,1.81 µM
same,TGI,CCRF-CEM leukemia,8.2 µM
same,GI50,COLO 205 colon,1.52 µM
same,TGI,COLO 205 colon,3.22 µM
same,GI50,DU-145 prostate,3.11 µM
same,TGI,DU-145 prostate,9.01 µM
same,GI50,HCC-2998 colon,2.84 µM
same,TGI,HCC-2998 colon,14.7 µM
same,GI50,HCT-116 colon,0.675 µM
same,TGI,HCT-116 colon,13.4 µM
same,GI50,HCT-15 colon,0.834 µM
same,TGI,HCT-15 colon,17.9 µM
same,GI50,HL-60(TB) leukemia,1.66 µM
same,TGI,HL-60(TB) leukemia,9.15 µM
same,GI50,HOP-62 NSCLC,3.79 µM
same,TGI,HOP-62 NSCLC,29.3 µM
same,GI50,HOP-92 NSCLC,4.62 µM
same,TGI,HOP-92 NSCLC,33.6 µM
same,GI50,HS 578T breast,1.99 µM
same,TGI,HS 578T breast,22.1 µM
same,GI50,HT29 colon,1.08 µM
same,TGI,HT29 colon,10.3 µM
same,GI50,IGROV1 ovarian,5.09 µM
same,TGI,IGROV1 ovarian,27.4 µM
same,GI50,K-562 leukemia,0.469 µM
same,TGI,K-562 leukemia,14.7 µM
same,GI50,KM12 colon,1.24 µM
same,TGI,KM12 colon,14.7 µM
same,GI50,LOX IMVI melanoma,2.81 µM
same,TGI,LOX IMVI melanoma,17.6 µM
same,GI50,M14 melanoma,0.445 µM
same,TGI,M14 melanoma,10.3 µM
same,GI50,MALME-3M melanoma,2.59 µM
same,TGI,MALME-3M melanoma,22.7 µM
same,GI50,MCF7 breast,3.42 µM
same,TGI,MCF7 breast,16.3 µM
same,GI50,MDA-MB-231 breast,2.78 µM
same,TGI,MDA-MB-231 breast,15.7 µM
same,GI50,MDA-MB-435,0.327 µM
same,TGI,MDA-MB-435,2.33 µM
same,GI50,MOLT-4 leukemia,2.44 µM
same,TGI,MOLT-4 leukemia,18.6 µM
same,GI50,NCI-H226 lung,12.7 µM
same,TGI,NCI-H226 lung,26.5 µM
same,GI50,NCI-H23 lung,1.76 µM
same,TGI,NCI-H23 lung,8.75 µM
same,GI50,NCI-H460 lung,3.12 µM
same,TGI,NCI-H460 lung,12 µM
same,GI50,NCI-H522 lung,0.748 µM
same,TGI,NCI-H522 lung,12.6 µM
same,GI50,OVCAR-3 ovarian,1.4 µM
same,TGI,OVCAR-3 ovarian,3.39 µM
same,GI50,OVCAR-4 ovarian,6.7 µM
same,TGI,OVCAR-4 ovarian,52.4 µM
same,GI50,OVCAR-5 ovarian,5.29 µM
same,TGI,OVCAR-5 ovarian,24.6 µM
same,GI50,OVCAR-8 ovarian,3.74 µM
same,TGI,OVCAR-8 ovarian,39.4 µM
same,GI50,PC-3 prostate,3.2 µM
same,TGI,PC-3 prostate,45.7 µM
same,GI50,RPMI-8226 leukemia,2.88 µM
same,TGI,RPMI-8226 leukemia,25.2 µM
same,GI50,RXF 393 renal,1.54 µM
same,TGI,RXF 393 renal,5.17 µM
same,GI50,SF-268 CNS,8.13 µM
same,TGI,SF-268 CNS,29.1 µM
same,GI50,SF-295 CNS,2.53 µM
same,TGI,SF-295 CNS,25.3 µM
same,GI50,SF-539 CNS,2.15 µM
same,TGI,SF-539 CNS,5.84 µM
same,GI50,SK-MEL-2 melanoma,3.22 µM
same,TGI,SK-MEL-2 melanoma,16.3 µM
same,GI50,SK-MEL-28 melanoma,3.93 µM
same,TGI,SK-MEL-28 melanoma,19.3 µM
same,GI50,SK-MEL-5 melanoma,2.08 µM
same,TGI,SK-MEL-5 melanoma,16.2 µM
same,GI50,SK-OV-3 ovarian,2.46 µM
same,TGI,SK-OV-3 ovarian,12.5 µM
same,GI50,SN12C renal,3.54 µM
same,TGI,SN12C renal,16.9 µM
same,GI50,SNB-19 CNS,7.67 µM
same,TGI,SNB-19 CNS,25.6 µM
same,GI50,SR leukemia,0.406 µM
same,TGI,SR leukemia,14.1 µM
same,GI50,SW-620 colon,0.707 µM
same,TGI,SW-620 colon,16.9 µM
same,GI50,T-47D breast,5.15 µM
same,TGI,T-47D breast,30.1 µM
same,GI50,TK-10 renal,7.66 µM
same,TGI,TK-10 renal,22.3 µM
same,GI50,U251 CNS,2.89 µM
same,TGI,U251 CNS,16.6 µM
same,GI50,UACC-257 melanoma,11.9 µM
same,TGI,UACC-257 melanoma,25.5 µM
same,GI50,UACC-62 melanoma,0.551 µM
same,TGI,UACC-62 melanoma,10.1 µM
same,GI50,UO-31 renal,3.46 µM
same,TGI,UO-31 renal,25.3 µM
CSc1ccc2c(c1)C(=O)c1c-2n(CCCN)c(=O)c2cc([N+](=O)[O-])ccc12,GI50,786-0 renal,0.0127 µM
same,TGI,786-0 renal,0.108 µM
same,GI50,ACHN renal,< 0.01 µM
same,TGI,ACHN renal,0.327 µM
same,GI50,DU-145 prostate,< 0.01 µM
same,TGI,DU-145 prostate,0.16 µM
same,GI50,HCC-2998 colon,0.104 µM
same,TGI,HCC-2998 colon,0.581 µM
same,GI50,HCT-116 colon,< 0.01 µM
same,TGI,HCT-116 colon,0.173 µM
same,GI50,HCT-15 colon,0.0962 µM
same,TGI,HCT-15 colon,0.249 µM
same,GI50,HOP-62 NSCLC,< 0.01 µM
same,TGI,HOP-62 NSCLC,0.147 µM
same,GI50,M14 melanoma,0.0249 µM
same,TGI,M14 melanoma,1.07 µM
same,GI50,MDA-MB-231 breast,0.215 µM
same,TGI,MDA-MB-231 breast,0.422 µM
same,GI50,NCI-H23 lung,< 0.01 µM
same,TGI,NCI-H23 lung,0.158 µM
same,GI50,OVCAR-5 ovarian,0.123 µM
same,TGI,OVCAR-5 ovarian,0.872 µM
same,GI50,RXF 393 renal,1.95 µM
same,TGI,RXF 393 renal,> 100 µM
same,GI50,SK-MEL-5 melanoma,0.127 µM
same,TGI,SK-MEL-5 melanoma,1.63 µM
same,GI50,SK-OV-3 ovarian,< 0.0117 µM
same,TGI,SK-OV-3 ovarian,1.37 µM
same,GI50,SW-620 colon,< 0.01 µM
same,TGI,SW-620 colon,0.209 µM
